What was measured:
[1] = test system: TNF-α, IL-6 and IL-1β mRNA in RAW264.7 macrophage cell line; assay: RT-PCR of cytokine mRNA in LPS-stimulated RAW264.7 macrophages; assay type: cell-based, mouse; conditions: 3 h pre-treatment, LPS 100 ng/mL 3 h
Excerpt: MK2 is recognized for inducing the production of pathological cytokines that fuel inflammation, including IL‐6, TNF‐α, and IL‐1β. These cytokines are the classic downstream target gene of MK2 and are identified as significant contributors to the risk of inflammation‐driven cancer,[34], [35], [36] such as colorectal cancer and hepatocellular carcinoma. Therefore, we assessed the transcriptional levels of these typical downstream cytokines in human monocytic THP‐1 cell‐line‐derived macrophage and the mouse RAW264.7 macrophage cell line under the influence of compound 11. […] Taken together, our findings corroborate that compound 11 effectively impedes the transcription and production of these key MK2 downstream pro‐inflammatory cytokines.
FIGURE 4 Targeting cellular MK2 signaling with irreversible inhibition by compound 11. […] (C) The inhibitory effects of compound 11 on TNF‐α and IL‐6 production in LPS‐stimulated RAW264.7 macrophages for 24 h, measured by ELISA. […]
Total RNA was extracted from cultured cells using the EZ‐press RNA Purification Kit (EZBioscience). Complementary DNA was synthesized using the ABScript III RT Master Mix for qPCR with gDNA remover (ABclonal Technology) and was quantified with primers listed in Table S5. The relative mRNA expression levels were quantified through qPCR using the SYBR green gene expression assay (ABclonal Technology).

p-Hsp27 in THP-1 cells = assay: Western blot of p-Hsp27 in IL-4/IL-13 treated THP-1 cells; assay type: cell-based, human; conditions: 1 h pretreatment, IL-4/IL-13 30 min
Excerpt: A previous study has reported that MK2 fostered M2‐like polarization of TAMs, driving a protumor and proangiogenic phenotype which in turn accelerates tumor progression.[21] We thus assessed the influence of compound 11 on macrophage polarization and function. Our experiments used human THP‐1 monocyte induced macrophages, mouse RAW264.7 macrophages, and mouse bone marrow‐derived macrophages (BMDM). These cells were induced into M2‐like macrophages using the classic IL‐4 and IL‐13 stimuli.
FIGURE 5 Inhibition of pro‐tumorigenic M2‐like polarization in macrophages by compound 11. (A–C) RT‐PCR analysis highlights the impact of compound 11 on MRC1 and ARG‐1 mRNA expression in various macrophage cells treated with IL‐4/IL‐13 alone or combined with compound 11 for 12 h or 24 h. (D) CD206 and Arg‐1 expression in bone marrow‐derived macrophages (BMDM) cells via flow cytometry post 48 h treatment of compound 11 and IL‐4/IL‐13. (E) The treatment effects of compound 11 in THP‐1 cells using western blot analysis. […] Data are shown as the mean ± SD. ^* p < 0.05; ^*** p < 0.001 versus the vehicle group, determined by unpaired t test. […]
After the treatment outlined in the figure legends, cells were lysed using 1× sodium dodecyl sulfate (SDS) solution. […] Protein bands were detected using an enhanced chemiluminescence detection reagent (Thermo Fisher Scientific).

[2] = Cell viability assay (CCK-8), HCC44; assay type: cell-based; conditions: HCC44 cells (non-small cell lung carcinoma), HCC44, human non-small cell lung carcinoma, read-out: IC50 (μM) mean ± SD, cytotoxicity
Method: In cellular experiments, cells are seeded into either 6-well or 96-well plates and incubated overnight, proceeding with treatments as described in the figure legends or methods section. The cell inoculation numbers are outlined as follows: For assays measuring cell viability, between 3,000 to 5,000 cells are seeded per well in 96-well plates. For other cellular assays, the seeding density ranges from 5×10^5 to 1×10^6 cells per well in 6-well plates.
Cells was plated into 96-well plates and incubated overnight prior to introduction of varying concentrations of compounds or control solvent. Following a 72-hour exposure period, cell viability was determined using a Cell Counting Kit-8 assay (Life-iLab, China). Dose-response curves were fitted using a four-parameter method facilitated by SoftMax Pro, which was subsequently used for the computation of IC50 values.

For `C=CC(=O)Nc1cc(-c2cc(-c3cc4c([nH]3)CCNC4=O)ccn2)ccc1OC(F)(F)F` [compound 11], the “effect on LPS-induced TNF-α, IL-6 and IL-1 mRNA expression” value [1] was “significantly inhibited”, the “effect on p-Hsp27” value (p-Hsp27 in THP-1 cells) was “significant inhibition” and the IC50 at 72 h [2] was 32.3 ± 3.3 µM.

Reference: article PMC11233931, “Remodeling tumor‐associated macrophage for anti‐cancer effects by rational design of irreversible inhibition of mitogen‐activated protein kinase‐activated protein kinase 2” (MedComm, 2024)
